Entries after “also recorded” stand apart in the source; their conditions may differ.
Columns and labels:
[1] = target: KRAS^G12D in the GTP state (Homo sapiens, UniProt P01116, G12D); experiment: MST binding, GTP-state KRAS G12D
From the text: (§1) FIGS. 1A-1D show representative data for the predicted binding mode and measured affinity of disclosed compound 11 to KRAS. (FIG. 1A) Structure of the catalytic domain of KRAS used for the virtual screening. Lobe1 (residues 1-86) and lobe2 (residues 87-166) are highlighted in different colors, as well as switches 1 (residues 30-40) and 2 (residues 60-75). The location of the target allosteric pocket p1 is indicated. (FIG. 1B) Chemical structure of compound 11. (FIG. 1C) Predicted binding pose of compound 11, with the key residues that make polar or vdW contacts with the ligand labeled. (FIG. 1D) Microscale thermophoresis (MST) experiments indicating direct binding of compound 11 to KRAS, along with dissociation constants (KD) derived from the curves. Changes in fluorescence upon titration of […] KRAS with increasing concentration of compound are shown: KRAS^WT (red), KRAS^G12C (green), KRAS^G12D (purple) and KRAS^Q61M (blue), each bound to the non-hydrolyzable GTP analogue, guanylyl imidodiphosphate (GNP). The same experiments indicated no binding to GDP-bound KRAS^G12D and KRAS^WT as well as Rap1B, which was used as control. […]

[2] = test system: SKLU-1 (KRAS^G12D) lung cancer cells; experiment: Cell proliferation (CyQuant), SKLU-1; format: cell-based; conditions: 72 h
Protocol: (§2) Cell proliferation. Potential effect of the ligands on cancer cell proliferation was tested in three lung cancer cells: SKLU-1, H1975 and H522. Cells were plated at ˜1,000 cell per well in a 96-well plate and maintained in full serum media with or without compound at 37° C. for 72 h changing the media with the compound every 24 h. Media with compound was prepared by serial dilution at concentrations indicated. Then cells were washed with PBS and frozen at −80° C. for a minimum of 24 h. Plates were thawed and CyQuant™ dye (in lysis buffer provided in the CyQuant™ cell proliferation assay kit, Invitrogen™) was added, and after a five-minute incubation, fluorescence (excitation: 480 nm emission: 520 nm) was measured with a Tecan Infinite M200 plate reader.

[3] = test system: RASless MEF cells expressing BRAF V600E; experiment: Proliferation of RASless MEF cells expressing BRAF V600E; format: cell-based; conditions: Mus musculus, normalized to DMSO control, 3 measurements, read-out: IC50 for inhibition of proliferation
Protocol: Cell numbers were averaged from 3 independent measurements and normalized with respect to DMSO control. Assays were conducted as described in McCarthy et al, (ACS Omega2019, 4, 2, 2921-2930).

lung cancer cells = experiment: Cell proliferation (CyQuant), lung cancer cells overall; format: cell-based
From the text: (FIG. 5A) Chemical structure of compounds 12, an analogue of 11 lacking the terminal methyl alcohol functional group. (FIG. 5B) Predicted binding pose of compound 12. (FIG. 5C) p-ERK and p-cRaf levels in BHK cells expressing KRAS^G12D treated with indicated concentrations of compound 12 or vehicle. (FIG. 5D) Proliferation profile of lung cancer cells upon treatment with increasing concentration of compound 12, monitored by a CyQuant assay. Data are averages over three independent experiments and error bars represent standard error. (FIG. 5E) GFP fluorescence lifetime from FLIM-FRET using cells expressing GFP-KRAS^G12D alone or together with RFP-cRaf, with or without treatment with 2 μM compound 12.
as §2

[4] = target: KRAS^G12C in the GTP state (Homo sapiens, UniProt P01116, G12C); experiment: MST binding, GTP-state KRAS G12C
From the text: as §1

[5] = test system: H1975 (KRAS^WT) lung cancer cells; experiment: Cell proliferation (CyQuant), H1975; format: cell-based; conditions: 72 h
Protocol: as §2

GTPKRAS^WT = GTPKRAS^WT (Homo sapiens, UniProt P01116); experiment: Microscale thermophoresis (MST) binding, GTP-state (GNP-bound) KRAS WT
From the text: as §1

[6] = target: T1, KRAS^G12D-cRaf interaction (Homo sapiens, UniProt P01116, G12D); experiment: FLIM-FRET of GFP-KRAS G12D and RFP-cRaf in BHK cells; format: cell-based, hamster; conditions: 1 μM
T1 construct: expressed in transfected cells; host or cells: BHK (baby hamster kidney) cells, transient expression
From the text: [formula] where P1 is polarization of free KRAS, P2 is polarization of Raf-bound KRAS, c is the total concentration of KRAS, and x the total concentration of Raf^RBD. (FIG. 2B) Amount of GFP-KRAS^G12D pulled down by GST-Raf^RBD after treatment of cell lysates with compound at the concentrations indicated (representative Westerns are shown at the top). The RBD sequence length was 1-149 and 51-131 in the fluorescence polarization and pull-down assays, respectively. (FIG. 2C) GFP fluorescence lifetime from FLIM-FRET using cells expressing GFP-KRAS^G12D alone or with RFP-Raf, with or without treatment by 1 μM compound 11. Data are shown as mean±S.E; significance estimated by one-way analysis of variance.
Fluorescence lifetime imaging (FLIM)-fluorescence resonance energy transfer (FRET). FLIM-FRET experiments were carried out using a lifetime fluorescence imaging attachment (Lambert Instruments, The Netherlands) on an inverted microscope (43). BHK cells transiently expressing mGFP-tagged KRAS^G12D (donor), alone or with mRFP-tagged cRaf^WT (acceptor) (using 1:5 ratio), were prepared as indicated in each experiment. The samples were excited using a sinusoidally modulated 3 W 470 nm light-emitting diode at 40 MHz under epi-illumination. Fluorescein was used as a lifetime reference standard. […] The phase and modulation were determined from 12 phase settings using the manufacturer's software. […]

[7] = Solubility in DMSO and common solvents; format: physicochemical; conditions: DMSO

| Compound | Kd [1] [nM] | sensitivity of proliferation [2] | IC50 [3] [nM] | selectivity between KRAS mutant and KRAS^WT lung cancer cells (lung cancer cells) | Kd [4] [nM] | sensitivity of proliferation [5] | Kd (GTPKRAS^WT) [nM] | KRAS^G12D-cRaf interaction (quenching of GFP fluorescence lifetime) [6] | solubility [7] |
| --- | --- | --- | --- | --- | --- | --- | --- | --- | --- |
| Cc1nn2c(N3CCN(CCO)CC3)cc(-c3ccccc3)nc2c1-c1ccccc1 [Compound 11, 2-[4-(8-methyl-3,9-diphenyl-2,6,7-triazabicyclo[4.3.0]nona-2,4,7,9-tetraen-5-yl)piperazin-1-yl]ethanol] | 400 to 700 | slightly more sensitive; also recorded: especially responsive | 1680 ± 170 | no significant difference | 400 to 700 | sensitive | ~300 | significantly reduced |  |
| Cc1cc(N2CCN(CCO)CC2)n2nc(C)c(-c3ccccc3)c2n1 [Compound 13] |  |  |  |  |  |  |  |  | readily soluble |

— patent US12251383B2, “Methods and compositions for KRAS inhibitors” (The Board of Regents of the University of Texas System, priority 2019, dated 2025)
